Measured values taken from ChEMBL document CHEMBL2321862, “Development and evaluation of novel phosphotyrosine mimetic inhibitors targeting the Src homology 2 domain of signaling lymphocytic activation molecule (SLAM) associated protein” (J Med Chem, 2013).
Active and inactive are the calls of the source. The calls are words filed in the database; no cut-off is given here. Peptide text beside a SMILES is read from it.

What was measured:
[1] = biological target: T1, SH2 domain-containing protein 1A (Homo sapiens) (UniProt O60880); experiment: Inhibition of recombinant 6-His-tagged SLAM associated protein SH2 domain (unknown origin) expressed in Escherichia coli BL21(DE3) binding to biotinyl-KKSLTIpYAQVQK-NH2 attached to NeutrAvidin-coated plates using p-nitrophenyl phosphate as substrate after 1 hr in presence of calf intestine phosphatase
T1 sequence (whole entry): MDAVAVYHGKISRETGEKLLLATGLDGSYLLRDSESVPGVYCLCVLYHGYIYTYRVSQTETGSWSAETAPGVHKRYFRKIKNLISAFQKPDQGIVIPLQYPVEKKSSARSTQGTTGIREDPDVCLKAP

[2] = biological target: T1, SH2 domain-containing protein 1A (Homo sapiens); experiment: Inhibition of recombinant 6-His-tagged SLAM associated protein SH2 domain (unknown origin) expressed in Escherichia coli BL21(DE3) binding to biotinyl-KKSLTIpYAQVQK-NH2 attached to NeutrAvidin-coated plates using p-nitrophenyl phosphate as substrate after 1 hr

CC[C@H](C)[C@H](NC(=O)[C@@H](NC(=O)[C@H](CC(C)C)NC(=O)[C@H](CO)NC(=O)[C@H](CCCCN)NC(=O)[C@H](CCCCN)NC(C)=O)[C@@H](C)O)C(=O)N[C@@H](Cc1ccc(OP(=O)(O)O)cc1)C(=O)N[C@@H](C)C(=O)N[C@@H](CCC(N)=O)C(=O)N[C@H](C(=O)N[C@@H](CCC(N)=O)C(=O)N[C@@H](CCCCN)C(N)=O)C(C)C (HELM PEPTIDE1{[ac].K.K.S.L.T.I.[O=C([C@H](Cc1ccc(OP(=O)(O)O)cc1)N[*:1])[*:2]].A.Q.V.Q.K.[am]}$$$$V2.0)
inhibition [1]: inactive | inhibition [2]: Dose-dependent effect
